This is an account of results in ChEMBL document CHEMBL1201862, “PubChem BioAssay data set” (2004).

Assay in all cases: NCI anticancer screen, dose series, 48 h
The subject of experiment [1] is 786-0.
The subject of experiment [2] is A498.
In experiment [3] the test system is ACHN.
Experiment [4] relates to CAKI-1.
Experiment [5] concerns COLO 205.
For experiment [6], the system named is HCT-15.
Experiment [7] relates to Hs-578T.
Experiment [8] deals with MDA-MB-435.
The test system of experiment [9] is MOLT-4.
The subject of experiment [10] is NCI-H460.
Experiment [11] has as its system NCI/ADR-RES.
In experiment [12] the test system is SF-268.
Experiment [13] has as its system SF-539.
Experiment [14] has as its system SK-MEL-28.
Experiment [15] relates to SK-MEL-2.
Experiment [16] concerns SK-OV-3.
The test system of experiment [17] is SN12C.
The test system of experiment [18] is SW-620.
The test system of experiment [19] is TK-10.
The subject of experiment [20] is UO-31.

Structures are written as SMILES.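 In this assay, cells in 96-well plates receive the compound at five concentrations for 48 hours. Endpoints are linearly interpolated between the surrounding concentrations. At the GI50, growth is halved.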 Calls of active or inactive are those of the source. Rule as the data show it: active = GI50 up to about 1.1 µM and inactive = higher.

`CCOC(=O)/C(=C\c1ccccc1)C(=O)CCN1CCOCC1`: the GI50 is 7.78 µM (inactive) in experiment [1]; 16.7 µM (inactive) in experiment [2]; 5.38 µM (inactive) in experiment [3]; 4.49 µM (inactive) in [4]; 3.66 µM (inactive) in experiment [5]; 3.2 µM in experiment [6]. In addition, the GI50 was 47.1 µM (inactive) in [7]; 19 µM (inactive) in experiment [8]; 1.99 µM (inactive) in experiment [9]; 14.4 µM (inactive) in [10]; 3.06 µM (inactive) in experiment [11]; 8.17 µM (inactive) in experiment [12]. Besides, the GI50 in experiment [13] is 7.26 µM (inactive); in experiment [14], 3.54 µM (inactive); in experiment [15], 17.8 µM (inactive); in [16], 23 µM (inactive); in [17] it was 8.65 µM (inactive); in experiment [18], 2.33 µM (inactive). Also, the GI50 in experiment [19] was 6.5 µM (inactive); in experiment [20], 16.9 µM (inactive).
On to `CCOP(=O)(OCC)c1c(C(=O)OC)cc(=O)[nH]c1-c1ccc(C)cc1`, for which the GI50 was 20.6 µM (inactive) in [1]; 22 µM (inactive) in experiment [2]; 3.17 µM (inactive) in experiment [3]; 5.46 µM (inactive) in [4]; 6.5 µM (inactive) in [5]; 9.73 µM in [6]. Besides, the GI50 in experiment [7] is 17.9 µM (inactive); in [8] it was 18.5 µM (inactive); in experiment [9], 4.57 µM (inactive); in [10], 19.1 µM (inactive); in [11] it was 19.5 µM (inactive); in experiment [12], 19.4 µM (inactive). Moreover, the GI50 in experiment [13] is 7.87 µM (inactive); in [14], 18.5 µM (inactive); in [15], 15.7 µM (inactive); in [16], 22.8 µM (inactive); in [17], 22.4 µM (inactive); in [18] it was 5.75 µM (inactive). Further, the GI50 in experiment [19] was 14.4 µM (inactive); in experiment [20], 4.05 µM (inactive).
As for `COc1cc(C2c3cc4c(cc3OC(NNc3ccccc3)C2C)OCO4)cc(OC)c1OC` (stereo not given), the GI50 in experiment [1] was 1.1 µM (active); in [2] it was 2.22 µM (inactive); in experiment [3] it was 0.631 µM (active); in experiment [4], 0.982 µM (active); in experiment [5], 1.46 µM (inactive); in [6] it was 0.417 µM. In addition, the GI50 in experiment [7] is 2.96 µM (inactive); in experiment [8], 0.305 µM (active); in experiment [9] it was 1.09 µM (active); in experiment [10] it was 1.02 µM (active); in experiment [11] it was 0.597 µM (active); in [12], 1.86 µM (inactive). For the same compound, the GI50 was 0.571 µM (active) in experiment [13]; 1.57 µM (inactive) in experiment [14]; 1.23 µM (inactive) in experiment [15]; 2.08 µM (inactive) in experiment [16]; 2.99 µM (inactive) in experiment [17]; 1.4 µM (inactive) in experiment [18]. For the same compound, the GI50 in experiment [19] is 2.48 µM (inactive); in experiment [20], 0.91 µM (active).
As for `O=C1CC(O)c2c(Br)sc(Br)c21` (stereo not given), the GI50 was 4.1 µM (inactive) in experiment [1]; 19.9 µM (inactive) in [2]; 16.2 µM (inactive) in [3]; 2.07 µM (inactive) in experiment [4]; 13.2 µM (inactive) in experiment [5]; 11.3 µM in experiment [6]. Further, the GI50 is 25.6 µM (inactive) in experiment [7]; 5.58 µM (inactive) in experiment [8]; 1.91 µM (inactive) in [9]; 16.9 µM (inactive) in experiment [10]; 30.3 µM (inactive) in experiment [11]; 18.1 µM (inactive) in experiment [12]. The GI50 is 6.5 µM (inactive) in experiment [13]; 15.7 µM (inactive) in experiment [14]; 14 µM (inactive) in [15]; 16.6 µM (inactive) in experiment [16]; 17.5 µM (inactive) in experiment [17]; 1.93 µM (inactive) in experiment [18]. Moreover, the GI50 is 3.54 µM (inactive) in experiment [19] and 2.61 µM (inactive) in experiment [20].
